Measured values: patent US20150299188A1, “HETEROCYCLIC COMPOUND” (priority 2012, published 2015)

System: FLAP (5-lipoxygenase activating protein)
Assay: In vitro binding test: displacement of [3H]-7-chloro-3-(5-((3-fluoropyridin-2-yl)methoxy)-2-methylphenyl)-3,4-dihydroquinazolin-2(1H)-one from Sf9 microsome fractions
Parameters: species or system human and mouse
Settings: Sf9 microsome fractions expressing FLAP; 100% = radioligand binding with 10 μM sodium 3-(3-(tert-butylsulfanyl)-1-(4-chlorobenzyl)-5-isopropyl-1H-indol-2-yl)-2,2-dimethylpropanoate, 0% = DMSO; test compound concentration not given
How it was run: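 Sf9 microsomes expressing human or mouse FLAP (2 μg/mL) preincubated with compound 10 min at room temperature, then 120 nM tritiated quinazolinone ligand added for 60 min; buffer 100 mM Tris-HCl pH 7.5 with NaCl, EDTA, DTT, glycerol, Tween20. Bound ligand filtered and counted by scintillation; 10 μM indole propanoate defines 100% inhibition, DMSO 0%.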

SMILES	inhibitory rate (%)
Cc1cc2c(cc1N1Cc3c(Cl)cnc(-c4cnn(C)c4)c3NC1=O)OC(c1ncccc1F)CC2 (centres unmarked) [Example 148, 5-chloro-3-(2-(3-fluoropyridin-2-yl)-6-methyl-3,4-dihydro-2H-chromen-7-yl)-8-(1-methyl-1H-pyrazol-4-yl)-3,4-dihydropyrido[3,4-d]pyrimidin-2(1H)-one]	97
Cc1noc(C)c1-c1ncc(Cl)c2c1NC(=O)N(c1cc3c(cc1Cl)CCC(c1ncccc1F)O3)C2 (centres unmarked) [Example 126, 5-chloro-3-(6-chloro-2-(3-fluoropyridin-2-yl)-3,4-dihydro-2H-chromen-7-yl)-8-(3,5-dimethyl-1,2-oxazol-4-yl)-3,4-dihydropyrido[3,4-d]pyrimidin-2(1H)-one]	113
O=C1Nc2c(C3=CCOCC3)ncc(Cl)c2CN1c1cc2c(cc1Cl)CCC(c1ncccc1F)O2 (centres unmarked) [Example 127, 5-chloro-3-(6-chloro-2-(3-fluoropyridin-2-yl)-3,4-dihydro-2H-chromen-7-yl)-8-(3,6-dihydro-2H-pyran-4-yl)-3,4-dihydropyrido[3,4-d]pyrimidin-2(1H)-one]	98
Cc1ccc(OCc2ncccc2F)cc1N1Cc2c(Cl)cccc2N(CC2CC2)C1=O [Example 284, 5-chloro-1-(cyclopropylmethyl)-3-(5-((3-fluoropyridin-2-yl)methoxy)-2-methylphenyl)-3,4-dihydroquinazolin-2(1H)-one]	105
O=c1[nH]c2ccccc2c(=O)n1-c1cc(OCc2ncccc2F)ccc1F [Example 345, 3-(2-fluoro-5-((3-fluoropyridin-2-yl)methoxy)phenyl)quinazoline-2,4(1H,3H)-dione]	114
O=C1Nc2cc(N3CCOCC3)nc(C3CC3)c2CN1c1cc2c(cc1Cl)CCC(c1ncccc1F)O2 (centres unmarked) [Example 59, 3-(6-chloro-2-(3-fluoropyridin-2-yl)-3,4-dihydro-2H-chromen-7-yl)-5-cyclopropyl-7-(morpholin-4-yl)-3,4-dihydropyrido[4,3-d]pyrimidin-2(1H)-one]	107
O=C(O)CCCCc1ccc(OCc2ncccc2F)cc1N1Cc2ccccc2NC1=O [Example 251, 5-(4-((3-fluoropyridin-2-yl)methoxy)-2-(2-oxo-1,4-dihydroquinazolin-3(2H)-yl)phenyl)pentanoic acid]	68
Cc1ccc(OCc2ncccc2Br)cc1-n1c(=O)[nH]c2ccccc2c1=O [Example 371, 3-(5-((3-bromopyridin-2-yl)methoxy)-2-methylphenyl)quinazoline-2,4(1H,3H)-dione]	96
Cc1ccc(OCc2ncccc2F)cc1N1Cc2ccc(C(=O)N(C)C3CC3)cc2NC1=O [Example 302, N-cyclopropyl-3-(5-((3-fluoropyridin-2-yl)methoxy)-2-methylphenyl)-N-methyl-2-oxo-1,2,3,4-tetrahydroquinazoline-7-carboxamide]	104
O=C(NCC(F)(F)F)c1cc2c(c(C3CC3)n1)CN(c1cc3c(cc1Cl)CCC(c1ncccc1F)O3)C(=O)N2 (centres unmarked) [Example 149, 3-(6-chloro-2-(3-fluoropyridin-2-yl)-3,4-dihydro-2H-chromen-7-yl)-5-cyclopropyl-2-oxo-N-(2,2,2-trifluoroethyl)-1,2,3,4-tetrahydropyrido[4,3-d]pyrimidine-7-carboxamide]	107
Cc1ccc(OCc2ncccc2F)cc1-n1c(=O)[nH]c2cnc(Cl)cc2c1=O [Example 342, 6-chloro-3-(5-((3-fluoropyridin-2-yl)methoxy)-2-methylphenyl)pyrido[3,4-d]pyrimidine-2,4(1H,3H)-dione]	101
Cc1ccc(OCc2ncccc2F)cc1-n1c(=O)[nH]c2cc(C(F)(F)F)ccc2c1=O [Example 357, 3-(5-((3-fluoropyridin-2-yl)methoxy)-2-methylphenyl)-7-(trifluoromethyl)quinazoline-2,4(1H,3H)-dione]	104
O=C1Nc2c(N3CCC(O)CC3)ncc(Cl)c2CN1c1cc2c(cc1Cl)CCC(c1ncccc1F)O2 (centres unmarked) [Example 109, 5-chloro-3-(6-chloro-2-(3-fluoropyridin-2-yl)-3,4-dihydro-2H-chromen-7-yl)-8-(4-hydroxypiperidin-1-yl)-3,4-dihydropyrido[3,4-d]pyrimidin-2(1H)-one]	106
Cc1ccc(OCc2ncccc2F)cc1N1Cc2c(Cl)cccc2N(Cc2ccccc2C(=O)O)C1=O [Example 296, 2-((5-chloro-3-(5-((3-fluoropyridin-2-yl)methoxy)-2-methylphenyl)-2-oxo-3,4-dihydroquinazolin-1(2H)-yl)methyl)benzoic acid]	95
Cc1ccc(OCc2ncccc2F)cc1N1Cc2nn(CC(F)(F)F)cc2NC1=O [Example 263, 6-(5-((3-fluoropyridin-2-yl)methoxy)-2-methylphenyl)-2-(2,2,2-trifluoroethyl)-2,4,6,7-tetrahydro-5H-pyrazolo[4,3-d]pyrimidin-5-one]	97
O=C1NCCN1c1cc2c(c(C3CC3)n1)CN(c1cc3c(cc1Cl)CCC(c1ncccc1F)O3)C(=O)N2 (centres unmarked) [Example 131, 3-(6-chloro-2-(3-fluoropyridin-2-yl)-3,4-dihydro-2H-chromen-7-yl)-5-cyclopropyl-7-(2-oxoimidazolidin-1-yl)-3,4-dihydropyrido[4,3-d]pyrimidin-2(1H)-one]	101
Cn1cc2c(n1)CN(c1cc(OCc3ncccc3F)ccc1Br)C(=O)N2 [Example 264, 6-(2-bromo-5-((3-fluoropyridin-2-yl)methoxy)phenyl)-2-methyl-2,4,6,7-tetrahydro-5H-pyrazolo[4,3-d]pyrimidin-5-one]	101
O=C1Nc2cccc(Cl)c2CN1c1cc(OCc2ncccc2F)c(F)cc1Cl [Example 287, 5-chloro-3-(2-chloro-4-fluoro-5-((3-fluoropyridin-2-yl)methoxy)phenyl)-3,4-dihydroquinazolin-2(1H)-one]	95
O=C1Nc2c(Cl)cnc(C3CC3)c2CN1c1cc2c(cc1Cl)CCC(c1ncccc1F)O2 (centres unmarked) [Example 65, 8-chloro-3-(6-chloro-2-(3-fluoropyridin-2-yl)-3,4-dihydro-2H-chromen-7-yl)-5-cyclopropyl-3,4-dihydropyrido[4,3-d]pyrimidin-2(1H)-one]	105
Cc1cc2c(cc1N1Cc3cccnc3NC1=O)OC(c1ncccc1F)CC2 (centres unmarked) [Example 40, 3-(2-(3-fluoropyridin-2-yl)-6-methyl-3,4-dihydro-2H-chromen-7-yl)-3,4-dihydropyrido[2,3-d]pyrimidin-2(1H)-one]	108
Cc1ccc(OCc2c(F)cccc2F)cc1N1Cc2[nH]ncc2NC1=O [Example 309, 6-(5-((2,6-difluorobenzyl)oxy)-2-methylphenyl)-1,4,6,7-tetrahydro-5H-pyrazolo[4,3-d]pyrimidin-5-one]	51
Cc1cc(I)c(OCc2ncccc2F)cc1N1Cc2ccc(Cl)cc2NC1=O [Example 304, 7-chloro-3-(5-((3-fluoropyridin-2-yl)methoxy)-4-iodo-2-methylphenyl)-3,4-dihydroquinazolin-2(1H)-one]	64
Cc1cc2c(cc1N1Cc3c(Cl)ccnc3NC1=O)OC(c1ncccc1F)CC2 (centres unmarked) [Example 36, 5-chloro-3-(2-(3-fluoropyridin-2-yl)-6-methyl-3,4-dihydro-2H-chromen-7-yl)-3,4-dihydropyrido[2,3-d]pyrimidin-2(1H)-one]	115
O=C(NCC(F)F)c1cc2c(c(C3CC3)n1)CN(c1cc3c(cc1Cl)CCC(c1ncccc1F)O3)C(=O)N2 (centres unmarked) [Example 147, 3-(6-chloro-2-(3-fluoropyridin-2-yl)-3,4-dihydro-2H-chromen-7-yl)-5-cyclopropyl-N-(2,2-difluoroethyl)-2-oxo-1,2,3,4-tetrahydropyrido[4,3-d]pyrimidine-7-carboxamide]	104
O=C1Nc2cc(OC(F)F)nc(C3CC3)c2CN1c1cc2c(cc1Cl)CCC(c1ncccc1F)O2 (centres unmarked) [Example 18, 3-(6-chloro-2-(3-fluoropyridin-2-yl)-3,4-dihydro-2H-chromen-7-yl)-5-cyclopropyl-7-(difluoromethoxy)-3,4-dihydropyrido[4,3-d]pyrimidin-2(1H)-one]	88
Cc1cc2c(cc1N1Cc3c(Cl)ncnc3NC1=O)OC(c1ncccc1F)CC2 (centres unmarked) [Example 37, 5-chloro-3-(2-(3-fluoropyridin-2-yl)-6-methyl-3,4-dihydro-2H-chromen-7-yl)-3,4-dihydropyrimido[4,5-d]pyrimidin-2(1H)-one]	107
COC(=O)c1ccc2c(c1)NC(=O)N(c1cc(OCc3c(F)cccc3F)ccc1C)C2 [Example 171, methyl 3-(5-((2,6-difluorobenzyl)oxy)-2-methylphenyl)-2-oxo-1,2,3,4-tetrahydroquinazoline-7-carboxylate]	99
COCc1ccc2c(c1)NC(=O)N(c1cc(OCc3c(F)cccc3F)ccc1C)C2 [Example 193, 3-(5-((2,6-difluorobenzyl)oxy)-2-methylphenyl)-7-(methoxymethyl)-3,4-dihydroquinazolin-2(1H)-one]	97
Cc1cc2c(cc1N1Cc3c(ccnc3C(F)F)NC1=O)OC(c1ncccc1F)CC2 (centres unmarked) [Example 24, 5-(difluoromethyl)-3-(2-(3-fluoropyridin-2-yl)-6-methyl-3,4-dihydro-2H-chromen-7-yl)-3,4-dihydropyrido[4,3-d]pyrimidin-2 (1H)-one]	96
